Our source for the TGI and GI50 values is PubChem BioAssay (NCI).

What all share (experiment): DTP human tumour cell line panel, 48 h
Test [1] relates to A549 NSCLC.
Test [2] has as its system HOP-62 NSCLC.
For test [3], the system named is HT29 colon.
The test system of test [4] is IGROV1 ovarian.
Test [5] concerns LOX IMVI melanoma.
Test [6] concerns MCF7 breast.
Test [7] relates to NCI-H23 lung.
Test [8] has as its system NCI-H522 lung.
Test [9] has as its system SF-539 CNS.
Test [10] deals with SW-620 colon.

Molecules are shown by their SMILES.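 Exposure lasted 48 hours, with cells grown in 96-well plates and compounds tested at five concentrations. Abbreviation: GI50, concentration required for 50% inhibition of growth. Definition used: TGI = concentration required for complete inhibition of growth.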

On to `CCOC(=O)c1c(Br)c(-c2ccc(OC)cc2)c(Br)n1C`, for which the TGI (commonly the concentration at which net growth stops) is 82.3 µM in [1]; 39.7 µM in test [2]; 56.3 µM in test [3]; more than 100 µM in test [4]; 41.6 µM in test [5]; 39.7 µM in test [6]. The TGI was more than 100 µM in test [7], 83.9 µM in test [8], 70.9 µM in [9] and 38.2 µM in test [10]. For the same compound, the GI50 (as a rule, the concentration at which growth is held to half of that of the control) is 17.5 µM in test [5] and 15.9 µM in test [6].
Take `O=C(c1ccccc1)n1cc(-c2ccccc2)c2c(=O)[nH]cnc21`: the TGI in [1], in test [2], in [3], in [4], in test [5] and in [6] was more than 100 µM each time. The TGI in [7], in test [8], in test [9] and in test [10] was more than 100 µM throughout.
`CC(=O)OC(Cc1ccc2ccccc2n1)(C(F)(F)F)C(F)(F)F`: the TGI in test [1] was found to be 44.3 µM; in test [2], 27.9 µM; in test [3], 5.43 µM; in test [4], 6.02 µM; in test [5], 0.409 µM; in test [6], 0.559 µM. The TGI in [7] came to 6.95 µM; in test [8], 2.16 µM; in test [9] it was 7.71 µM; in test [10], 12 µM.
In the case of `CC(=O)c1ccccc1NCC(=O)Nn1cnc2ccc(S(=O)(=O)Nc3ccccc3C(C)=O)cc2c1=O`, the TGI in test [1], in test [2], in [3], in [4], in test [5] and in [6] was more than 100 µM throughout. The TGI in test [7], in test [8], in test [9] and in test [10] was more than 100 µM in each case.
In the case of `CSC1C(=O)Nc2ccc3ccccc3c21` (configuration not stated), the TGI in test [1] was more than 100 µM; in [2] it was 71.8 µM; in test [3] it was more than 100 µM; in [4], 33.3 µM; in test [5], 31 µM; in [6], more than 100 µM. Moreover, the TGI is more than 100 µM in test [7], 7.29 µM in test [8], 45.7 µM in [9] and 49 µM in [10].
Consider `Oc1ccc(Cl)cc1-c1cc(-c2ccccc2)nc(NCN2CCCCC2)n1`, for which the TGI in test [1], in [2], in test [3], in test [4], in [5] and in test [6] was more than 100 µM throughout. Besides, the TGI in test [7], in test [8], in test [9] and in test [10] was more than 100 µM in each case.
With `O=[N+]([O-])c1ccc(N/N=C/CC(O)(C(F)(F)F)C(F)(F)F)c([N+](=O)[O-])c1`, the TGI in [1], in test [2], in [3], in test [4], in test [5] and in test [6] was more than 10 µM in each case. In addition, the TGI in [7], in test [8], in [9] and in [10] was more than 10 µM in each case.
On to `C/C(=C\c1ccccc1)C(=O)NCc1ccc(C(=O)NCCc2ccccc2)cc1`, for which the TGI in [1] was more than 100 µM; in test [2], 10.8 µM; in test [3], 6.81 µM; in [4], more than 100 µM; in test [5], more than 100 µM; in test [6], more than 100 µM. For the same compound, the TGI in test [7] is more than 100 µM; in test [8] it was more than 100 µM; in test [9], more than 81.9 µM; in test [10], more than 100 µM.
As to `CC1=NN(C(=O)CC(=O)Nc2ccccc2Cl)C(=O)C1N=Nc1ccc(S(=O)(=O)c2ccc(N=NC3C(=O)N(C(=O)CC(=O)Nc4ccccc4Cl)N=C3C)cc2)cc1` (configuration not stated), the TGI in [1], in test [2], in test [3], in test [4], in [5] and in [6] was more than 100 µM each time. The TGI in test [7], in test [8], in test [9] and in test [10] was more than 100 µM each time.
Turning to `C(=N\Nc1ccc(-c2nc3ccccc3[nH]2)cc1)/c1c(-c2ccc(Cc3ccccc3)cc2)[nH]c2ccccc12`, the TGI in [1] is more than 100 µM; in [2] it was more than 100 µM; in test [3], more than 57.9 µM; in test [4], 19 µM; in test [5], 23 µM; in test [6], more than 48.8 µM. Also, the TGI in test [7] was 59.5 µM; in [8], 31.9 µM; in test [9], 44.6 µM; in test [10], more than 100 µM.
